PubChem BioAssay AID248 (DTP/NCI, 2004)
“And” between values parts separate entries of the source, which are not always exact repeats. Identical values can stand only once. Toxic doses and inconclusive results are not listed. No stated cut-off is given here; in the data, active means T/C of 150% or more; inactive means T/C below 125%.

Tested on: L1210 leukemia ip in BDF1 mice, survival T/C
Experiment: NCI In Vivo Anticancer Drug Screen. Data for tumor model L1210 Leukemia (intraperitoneal) in B6D2F1 (BDF1) mice
Conditions: endpoint: mean survival time, higher = longer survival
Summary of the method: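 Transplantable tumor model; survival measured in treated vs vehicle control mice. Value = treated/control.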

[1] = dose: 25.0 mg/kg/injection, schedule: Q04DX002 (ip), vehicle: saline with Tween-80
[2] = dose: 50.0 mg/kg/injection, schedule: Q04DX002 (ip), vehicle: saline with Tween-80
[3] = dose: 100.0 mg/kg/injection, schedule: Q01DX001 (ip), vehicle: saline
[4] = dose: 400.0 mg/kg/injection, schedule: Q01DX001 (ip), vehicle: saline
[5] = dose: 200.0 mg/kg/injection, schedule: Q01DX001 (ip), vehicle: saline
[6] = dose: 25.0 mg/kg/injection, schedule: Q01DX009 (ip), vehicle: saline with Tween-80
[7] = dose: 50.0 mg/kg/injection, schedule: Q01DX009 (ip), vehicle: saline with Tween-80
[8] = dose: 100.0 mg/kg/injection, schedule: Q04DX003 (ip), vehicle: saline with Tween-80
[9] = dose: 200.0 mg/kg/injection, schedule: Q04DX003 (ip), vehicle: saline with Tween-80
[10] = dose: 25.0 mg/kg/injection, schedule: Q04DX003 (ip), vehicle: saline
[11] = dose: 50.0 mg/kg/injection, schedule: Q04DX003 (ip), vehicle: saline
[12] = dose: 100.0 mg/kg/injection, schedule: Q04DX002 (ip), vehicle: Klucel (hydroxypropylcellulose) (HPC)
[13] = dose: 100.0 mg/kg/injection, schedule: Q04DX003 (ip), vehicle: saline
[14] = dose: 200.0 mg/kg/injection, schedule: Q04DX002 (ip), vehicle: Klucel (hydroxypropylcellulose) (HPC)
[15] = dose: 100.0 mg/kg/injection, schedule: Q01DX009 (ip), vehicle: Klucel (hydroxypropylcellulose) (HPC)
[16] = dose: 100.0 mg/kg/injection, schedule: Q04DX003 (ip), vehicle: Klucel (hydroxypropylcellulose) (HPC)
[17] = dose: 200.0 mg/kg/injection, schedule: Q01DX009 (ip), vehicle: Klucel (hydroxypropylcellulose) (HPC)
[18] = dose: 200.0 mg/kg/injection, schedule: Q04DX003 (ip), vehicle: Klucel (hydroxypropylcellulose) (HPC)
[19] = dose: 400.0 mg/kg/injection, schedule: Q01DX009 (ip), vehicle: Klucel (hydroxypropylcellulose) (HPC)
[20] = dose: 400.0 mg/kg/injection, schedule: Q04DX003 (ip), vehicle: Klucel (hydroxypropylcellulose) (HPC)
[21] = dose: 100.0 mg/kg/injection, schedule: Q01DX009 (ip), vehicle: saline with Tween-80
[22] = dose: 200.0 mg/kg/injection, schedule: Q01DX009 (ip), vehicle: saline with Tween-80
[23] = dose: 400.0 mg/kg/injection, schedule: Q01DX009 (ip), vehicle: saline with Tween-80
[24] = dose: 400.0 mg/kg/injection, schedule: Q04DX002 (ip), vehicle: Klucel (hydroxypropylcellulose) (HPC)

Measured: T/C

C=C(C)C1CCC2(CO)CCC3(C)C(CCC4C5(C)CCC(OC6CCCCO6)C(C)(C)C5CCC43C)C12 (stereo unspecified)
inactive: [1] 96 % of control | [2] 93 % of control

C/C(=N\N=C(/C)c1ccc(N)cc1)c1ccc(N)cc1
inactive: [3] 90 % of control | [4] 96 % of control

Nc1nc(N)nc(CCN2CCCCC2)n1
inactive: dose: 6.25 mg/kg/injection, schedule: Q01DX001 (ip), vehicle: saline with Tween-80 94 % of control | dose: 12.5 mg/kg/injection, schedule: Q01DX001 (ip), vehicle: saline with Tween-80 102 % of control | dose: 25.0 mg/kg/injection, schedule: Q01DX001 (ip), vehicle: saline with Tween-80 102 % of control

CN=C(C#N)c1ccc(OC)c(OC)c1
inactive: dose: 50.0 mg/kg/injection, schedule: Q01DX001 (ip), vehicle: saline 102 % of control | [3] 96 % of control | [5] 102 % of control | [4] 102 % of control

O=C(O)C1CCCCC1C(=O)Nc1cccc(C(F)(F)F)c1 (stereo unspecified)
inactive: dose: 12.5 mg/kg/injection, schedule: Q01DX009 (ip), vehicle: saline with Tween-80 102 % of control | [6] 101 % of control | [7] 88 % of control and 92 % of control | [8] 102 % of control | [9] 92 % of control

CC(=O)Nc1cccc(N)c1
inactive: dose: 25.0 mg/kg/injection, schedule: Q01DX009 (ip), vehicle: saline 95 % of control | [10] 103 % of control | dose: 50.0 mg/kg/injection, schedule: Q01DX009 (ip), vehicle: saline 108 % of control | [11] 97 % of control | dose: 100.0 mg/kg/injection, schedule: Q01DX009 (ip), vehicle: saline 101 % of control | [12] 86 % of control | [13] 94 % of control | [14] 107 % of control

OC1CCCC2CCCNC12 (stereo unspecified) (tested in a mixture with another compound)
inactive: [15] 105 % of control | [16] 93 % of control | [17] 95 % of control | [18] 105 % of control | [19] 90 % of control | [20] 89 % of control

CC(C)NC(=O)CCSCCC(=O)NC(C)C
inactive: dose: 200.0 mg/kg/injection, schedule: Q04DX002 (ip), vehicle: other 94 % of control | dose: 400.0 mg/kg/injection, schedule: Q04DX002 (ip), vehicle: other 94 % of control

Clc1ccc(/C(=C(\Br)c2ccccc2)c2ccccc2)cc1
inactive: [21] 96 % of control and 98 % of control | [22] 95 % of control and 101 % of control | [23] 96 % of control and 102 % of control

C=CCOC(=N)c1ccccc1
inactive: [7] 93 % of control | [21] 105 % of control | [22] 91 % of control

O=C(O)C(=O)Nc1ncccc1C(=O)O
inactive: [12] 114 % of control | [14] 100 % of control | [24] 103 % of control

CC(=O)C(=O)C=C(C(F)(F)F)C(F)(F)F
inactive: [8] 113 % of control | [9] 106 % of control | dose: 400.0 mg/kg/injection, schedule: Q04DX003 (ip), vehicle: saline with Tween-80 101 % of control

Cc1cc(C(=O)O)c2cc(Br)ccc2n1
inactive: dose: 25.0 mg/kg/injection, schedule: Q01DX009 (ip), vehicle: Klucel (hydroxypropylcellulose) (HPC) 100 % of control | dose: 50.0 mg/kg/injection, schedule: Q01DX009 (ip), vehicle: Klucel (hydroxypropylcellulose) (HPC) 98 % of control | [15] 96 % of control

COc1cccc(CCNC(=O)CC#N)c1
inactive: [16] 98 % of control | [18] 87 % of control | [20] 91 % of control

COc1ccc2c(c1)c(=NCCCCN=c1c3cc(OC)ccc3n(O)c3cc(Cl)ccc13)c1cc(Cl)ccc1n2O
inactive: dose: 12.5 mg/kg/injection, schedule: Q01DX009 (ip), vehicle: other 93 % of control | dose: 25.0 mg/kg/injection, schedule: Q01DX009 (ip), vehicle: other 93 % of control | dose: 50.0 mg/kg/injection, schedule: Q01DX009 (ip), vehicle: other 93 % of control and 101 % of control | dose: 100.0 mg/kg/injection, schedule: Q01DX009 (ip), vehicle: other 101 % of control | dose: 200.0 mg/kg/injection, schedule: Q01DX009 (ip), vehicle: other 101 % of control

CCOc1ncnc2c1ncn2-c1cccc(C)c1
inactive: dose: 50.0 mg/kg/injection, schedule: Q01DX001 (ip), vehicle: carboxymethylcellulose (CMC) 98 % of control | dose: 100.0 mg/kg/injection, schedule: Q01DX001 (ip), vehicle: carboxymethylcellulose (CMC) 110 % of control | dose: 200.0 mg/kg/injection, schedule: Q01DX001 (ip), vehicle: carboxymethylcellulose (CMC) 101 % of control | dose: 400.0 mg/kg/injection, schedule: Q01DX001 (ip), vehicle: carboxymethylcellulose (CMC) 98 % of control

C/C(=N\N)C(=O)S(=O)(=O)c1c(C)cc(C)cc1C
inactive: dose: 100.0 mg/kg/injection, schedule: Q01DX001 (ip), vehicle: Klucel (hydroxypropylcellulose) (HPC) 97 % of control | dose: 200.0 mg/kg/injection, schedule: Q01DX001 (ip), vehicle: Klucel (hydroxypropylcellulose) (HPC) 97 % of control | dose: 400.0 mg/kg/injection, schedule: Q01DX001 (ip), vehicle: Klucel (hydroxypropylcellulose) (HPC) 101 % of control

Cc1nc(Cl)c2c(n1)Oc1nc(C)nc(Cl)c1C2c1ccc(Cl)cc1
inactive: dose: 50.0 mg/kg/injection, schedule: Q04DX003 (ip), vehicle: Klucel (hydroxypropylcellulose) (HPC) 97 % of control | [15] 96 % of control | [16] 97 % of control | [17] 97 % of control | [18] 101 % of control | [19] 107 % of control | [20] 95 % of control

CC(=O)Oc1ccc(/C=C/C(=O)O)cc1OC(C)=O
inactive: [1] 101 % of control | [2] 97 % of control | dose: 100.0 mg/kg/injection, schedule: Q04DX002 (ip), vehicle: saline with Tween-80 94 % of control | dose: 200.0 mg/kg/injection, schedule: Q04DX002 (ip), vehicle: saline with Tween-80 87 % of control | dose: 400.0 mg/kg/injection, schedule: Q04DX002 (ip), vehicle: saline with Tween-80 93 % of control

Cc1c(F)cccc1OCC(=O)O
inactive: [12] 111 % of control | [14] 108 % of control | [24] 105 % of control

Nc1[nH]c(=S)ncc1-c1ccc(Cl)c(Cl)c1
inactive: [16] 101 % of control | [18] 97 % of control | [20] 93 % of control

NC(Cc1ccc(O)cc1)C(=O)CCl (stereo unspecified)
inactive: dose: 25.0 mg/kg/injection, schedule: Q04DX002 (ip), vehicle: saline 110 % of control | dose: 50.0 mg/kg/injection, schedule: Q04DX002 (ip), vehicle: saline 105 % of control

CC1(C)N=C(N)N=C(N)N1c1ccc(OCCCCNC(=O)Nc2cccc(S(=O)(=O)F)c2)c(Cl)c1
inactive: [6] 100 % of control | [7] 108 % of control | [21] 116 % of control

CSc1nc(Cl)c(Br)c(N2CC2)n1
inactive: dose: 100.0 mg/kg/injection, schedule: Q01DX Z (ip), vehicle: methylcellulose (MC) 110 % of control | dose: 200.0 mg/kg/injection, schedule: Q01DX Z (ip), vehicle: methylcellulose (MC) 108 % of control

CN(C)CCOCCN(C)C
inactive: [3] 102 % of control | [5] 105 % of control | [4] 102 % of control

CC1(Cl)CCC(C(C)(C)Cl)CC1 (stereo unspecified)
inactive: [3] 101 % of control | [5] 90 % of control | [4] 90 % of control

CN(NCc1ccccc1)C(=N)N
inactive: [10] 106 % of control | [11] 109 % of control | [3] 107 % of control | [13] 109 % of control

O=C(O)c1cc(Cl)nc(Cl)c1
inactive: [15] 97 % of control | [17] 88 % of control

S=C1N(C2CCCCC2)CCN1C1CCCCC1
inactive: [12] 97 % of control

Cc1cc(Cl)cc([N+](=O)[O-])c1
inactive: [21] 96 % of control | [22] 96 % of control | [23] 95 % of control

O=C1CC2CCCC(C1)N2CC1COc2ccccc2O1 (stereo unspecified)
inactive: dose: 50.0 mg/kg/injection, schedule: Q04DX002 (ip), vehicle: Klucel (hydroxypropylcellulose) (HPC) 90 % of control | [12] 90 % of control | [14] 93 % of control
